One series addresses T1, human RIG-I (Homo sapiens, UniProt O95786).
T1 construct: other nucleic acid intracellular signaling receptors in primary human leukocytes; endogenous in cells; host or cells: primary human leukocytes
T1 sequence (O95786 1-925): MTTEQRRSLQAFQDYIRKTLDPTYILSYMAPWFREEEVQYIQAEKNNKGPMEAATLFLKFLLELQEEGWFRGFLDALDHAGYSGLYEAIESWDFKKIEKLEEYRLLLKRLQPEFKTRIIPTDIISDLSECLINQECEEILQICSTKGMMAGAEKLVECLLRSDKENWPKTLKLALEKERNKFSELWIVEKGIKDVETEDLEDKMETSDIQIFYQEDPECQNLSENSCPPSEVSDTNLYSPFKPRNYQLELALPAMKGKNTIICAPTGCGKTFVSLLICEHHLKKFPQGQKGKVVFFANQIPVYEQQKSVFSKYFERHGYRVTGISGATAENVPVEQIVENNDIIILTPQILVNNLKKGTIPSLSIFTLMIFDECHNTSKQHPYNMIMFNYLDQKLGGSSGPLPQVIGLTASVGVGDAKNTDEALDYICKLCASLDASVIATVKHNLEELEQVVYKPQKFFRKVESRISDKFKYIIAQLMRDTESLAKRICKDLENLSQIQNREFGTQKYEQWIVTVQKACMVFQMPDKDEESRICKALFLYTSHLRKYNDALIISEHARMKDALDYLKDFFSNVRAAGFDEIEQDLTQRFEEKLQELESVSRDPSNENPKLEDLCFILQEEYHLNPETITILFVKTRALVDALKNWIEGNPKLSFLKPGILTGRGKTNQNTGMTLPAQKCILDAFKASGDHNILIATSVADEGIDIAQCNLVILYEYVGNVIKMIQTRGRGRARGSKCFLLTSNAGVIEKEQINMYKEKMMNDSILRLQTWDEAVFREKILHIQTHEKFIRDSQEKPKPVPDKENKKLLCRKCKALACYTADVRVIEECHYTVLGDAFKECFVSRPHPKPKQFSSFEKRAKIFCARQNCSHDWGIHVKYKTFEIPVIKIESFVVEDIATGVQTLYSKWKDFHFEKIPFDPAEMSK
Nature of the series: Receptor specificity in primary human leukocytes: RIG-I. It is filed as cell-based. As for the experimental part:
(§1) Example B5—Receptor Specificity
(§2) Representative compounds were tested for antagonist activity against related toll-like receptor family members and other nucleic acid intracellular signaling receptors in primary human leukocytes. The compounds were Compound Nos. 5 and 9, and they were tested for their ability to inhibit human RIG-I, TLR-2, TLR-4, and TLR-5. With one exception, neither compound was able to inhibit these receptors greater than 50% at 10 μM.

Another series deals with T2, TLR-2 (Homo sapiens, UniProt O60603).
T2 construct: related toll-like receptor family members and other nucleic acid intracellular signaling receptors in primary human leukocytes; endogenous in cells; host or cells: primary human leukocytes
T2 sequence (O60603 21-784): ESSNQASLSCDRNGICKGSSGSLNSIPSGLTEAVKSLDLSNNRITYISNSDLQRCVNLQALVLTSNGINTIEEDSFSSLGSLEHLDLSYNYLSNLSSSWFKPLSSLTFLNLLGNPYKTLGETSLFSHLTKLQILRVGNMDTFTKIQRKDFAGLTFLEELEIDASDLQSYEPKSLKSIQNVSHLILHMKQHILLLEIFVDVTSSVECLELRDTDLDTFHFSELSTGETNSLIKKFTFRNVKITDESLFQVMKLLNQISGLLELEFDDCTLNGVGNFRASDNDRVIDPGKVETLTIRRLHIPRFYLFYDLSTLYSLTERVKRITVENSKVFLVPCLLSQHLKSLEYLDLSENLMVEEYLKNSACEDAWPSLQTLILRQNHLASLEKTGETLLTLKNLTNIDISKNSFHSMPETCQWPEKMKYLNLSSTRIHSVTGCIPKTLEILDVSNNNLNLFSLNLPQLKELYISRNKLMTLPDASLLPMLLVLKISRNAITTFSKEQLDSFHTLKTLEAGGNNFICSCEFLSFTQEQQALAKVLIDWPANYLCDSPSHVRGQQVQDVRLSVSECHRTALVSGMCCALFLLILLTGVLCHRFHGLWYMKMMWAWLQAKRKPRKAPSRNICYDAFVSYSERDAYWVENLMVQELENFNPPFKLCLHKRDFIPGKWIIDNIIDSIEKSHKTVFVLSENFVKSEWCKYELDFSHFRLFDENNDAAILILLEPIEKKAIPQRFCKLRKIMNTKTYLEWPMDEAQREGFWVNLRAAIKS
Briefly: Receptor specificity in primary human leukocytes: TLR-2. It is filed as cell-based. On the procedure: as §1, §2

A further series has as its target T3, TLR-4 (Homo sapiens, UniProt O00206+Q9Y6Y9).
T3 construct: related toll-like receptor family members and other nucleic acid intracellular signaling receptors in primary human leukocytes; endogenous in cells; host or cells: primary human leukocytes
Nature of the series: Receptor specificity in primary human leukocytes: TLR-4. It is filed as cell-based. As for the experimental part:
as §1, §2

The next series concerns the target T4, TLR-5 (Homo sapiens, UniProt O60602).
T4 construct: related toll-like receptor family members and other nucleic acid intracellular signaling receptors in primary human leukocytes; endogenous in cells; host or cells: primary human leukocytes
Nature of the series: Receptor specificity in primary human leukocytes: TLR-5. It is filed as cell-based. On the procedure: as §1, §2

The nature of series [1]: Plasma stability in human plasma. It is filed as in vitro ADME. The conditions noted are these: plasma (90%); 90% human plasma, 2 μM compound, 37° C., 0-60 minutes; read-out: T1/2 in human plasma. As for the experimental part:
Example B6—Plasma Stability
The stability of compounds in human plasma was tested. Human plasma was spiked with compound to final concentration of 90% plasma and 2 μM compound. Samples were incubated for 0, 5, 15, 30, 45 and 60 minutes at 37° C. The reaction was stopped by the addition of acetonitrile. An aliquot of the stopped reaction was mixed with ultra-pure water (Millipore, ZMQS50F01) and analyzed by liquid chromatography/electrospray ionization mass spectroscopy.

Structures are written as SMILES. pIC50: −log10 of the molar value.

T4 sequence (O60602 21-858): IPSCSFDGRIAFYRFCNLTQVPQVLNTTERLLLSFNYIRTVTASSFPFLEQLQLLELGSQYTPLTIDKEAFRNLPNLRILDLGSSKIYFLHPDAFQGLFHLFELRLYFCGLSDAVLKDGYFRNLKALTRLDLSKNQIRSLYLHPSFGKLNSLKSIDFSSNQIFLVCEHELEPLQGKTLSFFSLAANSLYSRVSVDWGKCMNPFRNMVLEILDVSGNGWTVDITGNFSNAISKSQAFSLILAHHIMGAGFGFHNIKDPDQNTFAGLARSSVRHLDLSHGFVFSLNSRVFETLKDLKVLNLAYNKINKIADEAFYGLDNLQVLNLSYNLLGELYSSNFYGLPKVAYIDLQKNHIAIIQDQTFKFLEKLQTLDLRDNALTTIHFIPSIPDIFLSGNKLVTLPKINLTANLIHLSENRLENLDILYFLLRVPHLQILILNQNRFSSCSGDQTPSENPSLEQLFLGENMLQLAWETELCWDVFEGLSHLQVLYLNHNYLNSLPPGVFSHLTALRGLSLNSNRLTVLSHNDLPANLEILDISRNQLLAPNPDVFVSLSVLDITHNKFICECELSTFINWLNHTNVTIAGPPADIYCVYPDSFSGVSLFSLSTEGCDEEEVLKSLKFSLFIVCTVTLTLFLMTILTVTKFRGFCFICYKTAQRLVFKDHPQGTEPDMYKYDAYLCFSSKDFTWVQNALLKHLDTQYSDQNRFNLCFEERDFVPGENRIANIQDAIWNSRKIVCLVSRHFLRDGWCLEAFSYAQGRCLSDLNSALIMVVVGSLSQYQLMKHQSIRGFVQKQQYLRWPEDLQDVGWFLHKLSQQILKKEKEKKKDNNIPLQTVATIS
T3 sequence (O00206 24-839): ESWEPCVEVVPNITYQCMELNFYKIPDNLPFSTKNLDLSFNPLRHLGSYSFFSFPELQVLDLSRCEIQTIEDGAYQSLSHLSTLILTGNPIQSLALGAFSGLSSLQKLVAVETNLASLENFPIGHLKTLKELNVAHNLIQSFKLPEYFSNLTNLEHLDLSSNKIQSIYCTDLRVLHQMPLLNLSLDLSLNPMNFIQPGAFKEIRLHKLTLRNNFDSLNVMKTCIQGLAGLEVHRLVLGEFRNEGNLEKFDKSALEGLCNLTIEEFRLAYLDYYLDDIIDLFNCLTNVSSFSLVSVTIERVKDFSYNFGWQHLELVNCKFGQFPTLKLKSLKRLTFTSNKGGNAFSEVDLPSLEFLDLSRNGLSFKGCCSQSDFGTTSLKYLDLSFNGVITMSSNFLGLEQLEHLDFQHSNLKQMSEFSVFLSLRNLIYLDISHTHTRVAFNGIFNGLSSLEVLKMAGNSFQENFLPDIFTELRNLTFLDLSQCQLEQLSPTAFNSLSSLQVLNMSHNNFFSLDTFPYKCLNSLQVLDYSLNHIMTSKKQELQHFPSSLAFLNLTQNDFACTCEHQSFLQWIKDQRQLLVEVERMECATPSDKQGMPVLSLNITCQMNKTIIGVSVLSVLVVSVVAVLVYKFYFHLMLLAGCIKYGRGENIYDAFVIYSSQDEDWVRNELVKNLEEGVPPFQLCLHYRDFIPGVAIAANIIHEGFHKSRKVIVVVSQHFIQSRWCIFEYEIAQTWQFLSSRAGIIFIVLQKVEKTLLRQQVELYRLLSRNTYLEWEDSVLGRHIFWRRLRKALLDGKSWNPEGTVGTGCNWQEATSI
T3 sequence (Q9Y6Y9 17-160 limits assumed): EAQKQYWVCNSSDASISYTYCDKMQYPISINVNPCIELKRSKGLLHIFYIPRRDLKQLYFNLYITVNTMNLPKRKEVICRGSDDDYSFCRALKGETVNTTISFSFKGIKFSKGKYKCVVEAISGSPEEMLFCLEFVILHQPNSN

In general, pIC50 refers to the IC50 on a negative log10 scale, so that one unit is a factor of ten. By inhibition is commonly meant the percentage by which the read-out fell short of the control. Read a low inhibition as a weak effect. Consider `Cc1ccc(-n2nc3c(N4CCC(CCC(=O)NCCN(C)C)CC4)nnc(C)c3c2C)cc1` [Compound No. 9, 3-(1-(3,4-dimethyl-2-(p-tolyl)-2H-pyrazolo[3,4-d]pyridazin-7-yl)piperidin-4-yl)-N-(2-(dimethylamino)ethyl)propanamide], for which the negative-log IC50 (pIC50) on human RIG-I (read-out: IC50 against RIG-I) is 5.08. Moreover, the inhibition at 10 µM against TLR-2, at TLR-4 and against TLR-5 was no more than 50% in each case.
As to `Cc1ccc(-n2nc3c(N4CCC(C(=O)NCCCN(C)Cc5ccccc5)CC4)nnc(C)c3c2C)cc1` [Compound No. 1, N-(3-(benzyl(methyl)amino)propyl)-1-(3,4-dimethyl-2-(p-tolyl)-2H-pyrazolo[3,4-d]pyridazin-7-yl)piperidine-4-carboxamide], in series [1], the half-life at 2 μM was 3.74 h.
In the case of `Cc1ccc(-n2nc3c(N4CCC(C(=O)NCCCN(C)C)CC4)nnc(C)c3c2C)cc1` [Compound No. 5, 1-(3,4-dimethyl-2-(p-tolyl)-2H-pyrazolo[3,4-d]pyridazin-7-yl)-N-(3-(dimethylamino)propyl)piperidine-4-carboxamide], the inhibition at 10 µM against human RIG-I (at 10 μM), on TLR-2, at TLR-4 and against TLR-5 was no more than 50% each time. The half-life at 2 μM in series [1] came to 17.9 h.
For `Cc1ccc(-n2nc3c(N4CCC(C(=O)NC5CN(C)C5)CC4)nnc(C)c3c2C)cc1` [Compound No. 3, 1-(3,4-dimethyl-2-(p-tolyl)-2H-pyrazolo[3,4-d]pyridazin-7-yl)-N-(1-methylazetidin-3-yl)piperidine-4-carboxamide], the half-life at 2 μM in series [1] was determined as 3.45 h.

The record behind these values is patent publication US11370794B2, “Toll-like receptor antagonist compounds and methods of use” (Dynavax Technologies Corporation, priority 2016, dated 2022).
